Test results as given in patent US12465614B2, “Budesonide 21-phosphate salts and pharmaceutical compositions containing the same” (GENETIC S.P.A., priority 2020, dated 2025).

Assays:
[1] = tested on: compound 48/80 (C48/80)-induced skin edema in mice; experiment: Cutaneous edema: C48/80-induced plasma extravasation, Evans blue method (Experimental Groups IV); format: in vivo; details: for C48/80-induced edema: 0.70 μmol/kg i.p. (0.30 mg/kg Bud, 0.36 mg/kg Bud 21-P); for reduction of C48/80-induced plasma extravasation: 2.32 μmol/kg i.p. (1.0 mg/kg Bud, 1.2 mg/kg Bud 21-P), 60 min before i.d. C48/80
Protocol: Male C57Bl/6 SPF mice (25±2 g, 6-week-old) were purchased from the animal house facilities at the São Paulo School of Medicine (Federal University of São Paulo, Brazil). They were group-housed in a temperature-controlled room at 22° C. with a 12/12-hour light/dark cycle, had free access to food and water and were allowed to acclimate to our local facility for one week before the start of the experimental procedures. The study agrees with the Ethical Principles for Animal Research established by the Brazilian College for Animal Experimentation (COBEA). According to the internal laboratory rules, euthanasia is performed if severe distress related to the test agents developed during the experiment.
In Protocol 4, Bud (at doses of 1.0 and 0.30 mg/kg) and Bud 21-P (at doses of 1.2 and 0.36 mg/kg) were administered on a molar base, these doses were equivalent to […] μmol/kg of each compound, respectively. The vehicle for dissolution of the compounds was sterile saline solution (0.9% NaCl) containing 12.5% DMSO (Sigma Chemical Co., St. Louis, MO). The compound solutions were prepared at concentrations such that the administered dose per kg of body weight results from the intraperitoneal (i.p.) administration of 10 ml/kg of each of the solutions.
Skin edema was assessed in mice according to the method previously described by Costa et al. (2006) and Yshii et al (2009). The mice were anesthetized with urethane (25% w/v, 10 ml/kg, i.p.), had their dorsal skin shaved, and thereafter i.p. treated with the vehicle/test compounds. Fifty-five minutes later, a volume of 100 μL of Evans blue dye solution (0.25% in sterile saline) was intravenously (i.v.) injected via the tail vein. Five minutes later, the BK and C48/80 were intradermally (i.d.) injected into the dorsal skin at a fixed volume of 50 μl using a randomized scheme. The same volume of Tyrode solution 50 μl was injected as a control. Thirty minutes later, a 1 ml blood sample was obtained via cardiac puncture and the mice were killed by urethane overdose followed by cervical dislocation. The blood samples were centrifuged at 6,000 g for 4 min to obtain the plasma. […] The dye was extracted from each piece of skin and plasma (100 μl) samples using formamide, and the absorbance of the resulting solutions was measured at 620 nm. The plasma extravasation due to each agent (expressed in μl/site) was calculated as the ratio between the absorbance of each respective skin piece, corrected by the blank value and plasma sample solutions, properly adjusted by the dilution factors. To homogenate data due to the variability of different group of animals (inter-group variations), edema data are expressed as the fold-change response relative to the mean Tyrode (control) response of each experiment.

[2] = tested on: Bradykinin acetate (BK)-induced skin edema in mice; experiment: Cutaneous edema: BK-induced plasma extravasation, Evans blue method (Experimental Groups IV); format: in vivo
Protocol: Male C57Bl/6 SPF mice (25±2 g, 6-week-old) were purchased from the animal house facilities at the São Paulo School of Medicine (Federal University of São Paulo, Brazil). They were group-housed in a temperature-controlled room at 22° C. with a 12/12-hour light/dark cycle, had free access to food and water and were allowed to acclimate to our local facility for one week before the start of the experimental procedures. The study agrees with the Ethical Principles for Animal Research established by the Brazilian College for Animal Experimentation (COBEA). According to the internal laboratory rules, euthanasia is performed if severe distress related to the test agents developed during the experiment. […] The vehicle for dissolution of the compounds was sterile saline solution (0.9% NaCl) containing 12.5% DMSO (Sigma Chemical Co., St. Louis, MO). The compound solutions were prepared at concentrations such that the administered dose per kg of body weight results from the intraperitoneal (i.p.) administration of 10 ml/kg of each of the solutions. Bradykinin acetate (BK; cat. B3259, Sigma Chemical Co., St. Louis, MO) and compound 48/80 (C48/80; cat. C2313, Sigma Chemical Co., St. […] Skin edema was assessed in mice according to the method previously described by Costa et al. (2006) and Yshii et al (2009). The mice were anesthetized with urethane (25% w/v, 10 ml/kg, i.p.), had their dorsal skin shaved, and thereafter i.p. treated with the vehicle/test compounds. Fifty-five minutes later, a volume of 100 μL of Evans blue dye solution (0.25% in sterile saline) was intravenously (i.v.) injected via the tail vein. Five minutes later, the BK and C48/80 were intradermally (i.d.) injected into the dorsal skin at a fixed volume of 50 μl using a randomized scheme. The same volume of Tyrode solution 50 μl was injected as a control. Thirty minutes later, a 1 ml blood sample was obtained via cardiac puncture and the mice were killed by urethane overdose followed by cervical dislocation. The blood samples were centrifuged at 6,000 g for 4 min to obtain the plasma. The dorsal skin was removed, and the injected sites were punched out using an 8 mm diameter cork borer. […] The dye was extracted from each piece of skin and plasma (100 μl) samples using formamide, and the absorbance of the resulting solutions was measured at 620 nm. The plasma extravasation due to each agent (expressed in μl/site) was calculated as the ratio between the absorbance of each respective skin piece, corrected by the blank value and plasma sample solutions, properly adjusted by the dilution factors. To homogenate data due to the variability of different group of animals (inter-group variations), edema data are expressed as the fold-change response relative to the mean Tyrode (control) response of each experiment.

[3] = 0.70 μmol/kg i.p. (0.30 mg/kg Bud, 0.36 mg/kg Bud 21-P)
[4] = 2.32 μmol/kg i.p. (1.0 mg/kg Bud, 1.2 mg/kg Bud 21-P), 60 min before i.d. BK, measured 30 min after

In the case of `CCCC1OC2CC3C4CCC5=CC(=O)C=CC5(C)C4C(O)CC3(C)C2(C(=O)CO)O1` (stereo not drawn) [Bud, 11β,21-dihydroxy-16α,17α-(butylidenebis(oxy))pregna-1,4-diene-3.20-dione], the C48/80-induced edema [1] is reported as “ineffective”, the “reduction of C48/80-induced plasma extravasation” value [1] is reported as “approximately 50%” and the BK-induced plasma extravasation [2, 3] is reported as “ineffective”. For the same compound, the BK-induced plasma extravasation [2, 4] was “abolished BK-induced response”.
In the case of `CCCC1OC2CC3C4CCC5=CC(=O)C=CC5(C)C4C(O)CC3(C)C2(C(=O)COP(=O)(O)O)O1` (centres unmarked) [B, Budesonide 21-phosphate], the C48/80-induced edema [1] is reported as “significantly inhibited C48180-induced edema”, the “reduction of C48/80-induced plasma extravasation” value [1] is reported as “approximately 50%” and the BK-induced plasma extravasation [2, 3] is reported as “significantly reduced the BK response”. The BK-induced plasma extravasation [2, 4] was “abolished BK-induced response”.
